Test results taken from patent US11649222B2, “Compounds” (UNIVERSITETET I OSLO, priority 2016, dated 2023).
Where two headings read alike, the source gives them in different places. Marks after values point to notes of the source that are not given here.

What was measured:
[1] = system: P. aeruginosa 50692172 (NDM-1); experiment: Microbroth dilution MIC of meropenem with/without inhibitor; type: cell-based
Experimental: (§1) • Plate bacterial strain(s) on appropriate media: • Gram-negative bacteria with ESBLs or carbapenemases: green agar plates with 100 mg/L ampicillin • Gram-negative bacteria without β-lactamases: green agar plates • Gram-positive bacteria (Staphylococci and Enterococci): blood agar plates • Incubate o.n. at 37° C. […] (Should be used within 15 min of preparation). • Dilute the 0.5 McFarland suspension 1:100 into MH broth. […] Plate 10 μl of the dilution on MH agar plates (×2). Incubate o.n. at 37° C., count the colonies and calculate the final CFU/ml inoculum in the plate by multiplying the average number of colonies with 10000 and divide by 2. The final inoculum should be between 3-7×10^5 CFU/ml. • Add 50 μl of the prepared bacterial suspension to each well in the microtiter plate except negative growth control. Preparation of Compounds/Antibiotics • Calculate the desired concentration-range and volume of the compounds/antibiotics in the assay. […] Dilute the stock solution in MH broth. Make subsequent 2-fold dilutions in MH broth of the desired concentrations if a concentration range is to be tested (remember the extra dilution factor in the assay plate). Always include extra volume for pipetting. Take into consideration stock solutions that are made in buffers that have an effect on bacterial growth (e.g. DMSO).

[2] = system: resistant gram-negative MBL-based bacteria; experiment: MICx: adjuvant concentration giving carbapenem MIC ≤ 2 mg/L; type: cell-based; settings: lowest concentration of compound X that results in a MIC value of ≤ 2 mg/L for carbapenem antibiotics
Experimental: as §1

[3] = system: K. pneumoniae K66-45 (NDM-1); experiment: Microbroth dilution MIC of carbapenem with/without inhibitor; type: cell-based
Experimental: as §1

[4] = system: P. aeruginosa K34-7 (VIM-2); experiment: as above; type: cell-based; settings: for Meropenem activity (MIC) in presence of inhibitor: inhibitor 25 mg/L
Experimental: as §1

human hepG2 cells = experiment: In vitro toxicity in human hepG2 cells (AlamarBlue viability); type: cell-based
Experimental: For viability assays, cells were seeded in white 96-well Nunclon plates at a density of 20,000 cells/well and left overnight to adhere before experiments were conducted. Zn chelators dissolved in DMSO were added to white 96-well plates containing 20000 HepG2 cells/well at concentrations ranging from 1 to 1×10^−6 mM (max DMSO concentration never exceeded 1%) and incubated for 24 hours at 37° C. After 24 hours, AlamarBlue® cell viability reagent (Thermo Fisher, Carlsbad, USA) was added (10% final concentration) and incubated for 4 hours at 37° C.

VIM-2 = VIM-2 (Escherichia coli, UniProt Q5U7L7); type: biochemical; settings: purified VIM-2, PD-10 column
Experimental: The eluent used was Chelex-treated HEPES 50 mM buffer, pH 7.5. […] In all experiments, 16 aliquots of 250 μL were taken from the PD-10 column runsout and enzyme activity was analysed. Enzyme activity was measured by adding Nitrocefin as a reporter substrate (final concentration of 50 μM).
To investigate if more extreme time-dependent and concentration-dependent conditions could restore enzyme activity, aliquots having final concentrations of 30 nM column-treated enzyme and 1000 μM Zn^2+ on ice and at room temperature over prolonged time.

[5] = system: P. aeruginosa 50808021 (No MBL); experiment: Microbroth dilution MIC of meropenem with/without inhibitor; type: cell-based; settings: inhibitor 25 mg/L
Experimental: as §1

[6] = system: K. pneumoniae 50732159 (No MBL); experiment: as above; type: cell-based; settings: inhibitor 25 mg/L
Experimental: as §1

K. pneumoniae K66-45 = type: cell-based; settings: inhibitor 25 mg/L
Experimental: After plating and grown overnight at 37° C., only single colonies, ignoring any touching the edges of the plate, were counted.
10^9 CFU K66-45 (Mueller-Hinton broth, no selection) was plated and grown overnight, 37° C. Only single colonies, ignoring any touching the edges of the plate, were counted.

[7] = system: K. pneumoniae K66-45 and P. aeruginosa K34-7; experiment: Microbroth dilution MIC, carbapenem + inhibitor, two resistant clinical isolates; type: cell-based; settings: with meropenem
Experimental: • Plate bacterial strain(s) on appropriate media: • Gram-negative bacteria with ESBLs or carbapenemases: green agar plates with 100 mg/L ampicillin • Gram-negative bacteria without β-lactamases: green agar plates • Gram-positive bacteria (Staphylococci and Enterococci): blood agar plates • Incubate o.n. at 37° C. Day 2: Prepare the Bacterial Inoculum: • Prepare a 0.5 McFarland suspension of bacteria in 0.85% NaCl. (Should be used within 15 min of preparation). • Dilute the 0.5 McFarland suspension 1:100 into MH broth. Check the inoculum by diluting the prepared bacterial suspension 1:100 (10 μl bacterial suspension+990 μl 0.85% NaCl). Plate 10 μl of the dilution on MH agar plates (×2). Incubate o.n. at 37° C., count the colonies and calculate the final CFU/ml inoculum in the plate by multiplying the average number of colonies with 10000 and divide by 2. The final inoculum should be between 3-7×10^5 CFU/ml. • Add 50 μl of the prepared bacterial suspension to each well in the microtiter plate except negative growth control. Preparation of Compounds/Antibiotics • Calculate the desired concentration-range and volume of the compounds/antibiotics in the assay. […] Dilute the stock solution in MH broth. Make subsequent 2-fold dilutions in MH broth of the desired concentrations if a concentration range is to be tested (remember the extra dilution factor in the assay plate). Always include extra volume for pipetting. Take into consideration stock solutions that are made in buffers that have an effect on bacterial growth (e.g. DMSO).

[8] = human hepG2 cells, read-out: IC50h
[9] = human hepG2 cells, 24 hours, AlamarBlue, 8 replicates, read-out: IC50

| Compound | MICx [2] | IC50 (human hepG2 cells; [8]) [µM] | Meropenem activity in presence of inhibitor [5] [mg/L] | Meropenem activity in presence of inhibitor ([1]; inhibitor 25 mg/L) [mg/L] | Meropenem activity in presence of inhibitor [6] [mg/L] | adjuvant effect at an inhibitor concentration of 25 mg/L [7] | other results |
| --- | --- | --- | --- | --- | --- | --- | --- |
| C[C@H](CS)C(=O)N1CCC[C@H]1C(=O)O [Captopril, reference compound] | > 1000^d μM | 33 |  |  |  |  | Meropenem activity in presence of inhibitor ([1]; inhibitor 63 mg/L): 32 to 64 mg/L; Meropenem activity in presence of inhibitor ([3]; inhibitor 63 mg/L, K. pneumoniae K66-45 NDM-1): 64 mg/L; Meropenem activity in presence of inhibitor ([4]; inhibitor 63 mg/L): 32 mg/L |
| O=C(O)CN(CCN(CC(=O)O)CC(=O)O)CC(=O)O [EDTA, ethylenediaminetetra-acetic acid, reference compound] | 15 µM |  |  |  |  |  | irreversibility of VIM-2 inhibition (VIM-2): did not inhibit VIM-2 irreversibly; IC50 (human hepG2 cells; Homo sapiens, HepG2, estimated values (footnote c), read-out: IC50h): 30 µM |
| O=C(Cc1ccc(NC(=O)CN(CCN(Cc2ccccn2)Cc2ccccn2)Cc2ccccn2)cc1)NC[C@@H](O)CO [Example 23, (R)-2-((2-(bis(pyridin-2-ylmethyl)amino)ethyl)(pyridin-2-ylmethyl)amino)-N-(4-(2-(2,3-dihydroxypropylamino)-2-oxoethyl)phenyl)acetamide] |  |  | >64 | 1 | 32 |  | Meropenem activity (MIC) in presence of inhibitor [4]: 1 mg/L |
| CN(C[C@H](O)[C@@H](O)[C@H](O)[C@H](O)CO)C(=O)Cc1ccc(NC(=O)CN(CCN(Cc2ccccn2)Cc2ccccn2)Cc2ccccn2)cc1 [Example 25, 2-(4-(2-((2-(bis(pyridin-2-ylmethyl)amino)ethyl)(pyridin-2-ylmethyl)amino)acetamido)phenyl)-N-methyl-N-(2,3,4,5,6-pentahydroxyhexyl)acetamide] | 31 µM | 113 | >64 | 2 | 64 |  | RF - no of colonies (K. pneumoniae K66-45; MEM 1 mg/L): 64 colonies; MIC ([3]; Klebsiella pneumoniae, inhibitor 31.25 μM, 50 μM and 100 μM, K. pneumoniae K66-45, read-out: MIC of MEM in the presence of inhibitor): 0.125 µg/mL; Meropenem activity (MIC) in presence of inhibitor [4]: 2 mg/L; IC50 (human hepG2 cells; [9]): 113 µM |
| O=C(Cc1ccc(NC(=O)c2ccc(CN(Cc3ccccn3)Cc3ccccn3)nc2)cc1)NC(CO)(CO)CO [Example 100, 6-((bis(pyridin-2-ylmethyl)amino)methyl)-N-(4-(2-(1,3-dihydroxy-2-(hydroxymethyl)propan-2-ylamino)-2-oxoethyl)phenyl)nicotinamide] | 31 µM | 118 | >64 |  | 32 |  | IC50 (human hepG2 cells; [9]): > 100 µM |
| COC(=O)c1ccc(CN(Cc2ccccn2)Cc2ccccn2)s1 [Example 180, Methyl 5-((bis(pyridin-2-ylmethyl)amino)methyl)thiophene-2-carboxylate] |  |  |  |  |  | completely abolishes the adjuvant effect | IC50 (human hepG2 cells; Homo sapiens, HepG2, 24 h): ~80 µM |
| CN(C[C@H](O)[C@@H](O)[C@H](O)[C@H](O)CO)C(=O)c1ccc(CN(Cc2ccccn2)Cc2ccccn2)s1 [Example 182, 5-((bis(pyridin-2-ylmethyl)amino)methyl)-N-methyl-N-((2S,3R,4R,5R)-2,3,4,5,6-pentahydroxyhexyl)thiophene-2-carboxamide] |  |  |  |  |  | completely abolishes the adjuvant effect |  |
| CN(C[C@H](O)[C@@H](O)[C@H](O)[C@H](O)CO)C(=O)c1ccc(CN(Cc2ccccc2)Cc2ccccc2)nc1 [Example 185, 6-((dibenzylamino)methyl)-N-methyl-N-((2S,3R,4R,5R)-2,3,4,5,6-pentahydroxyhexyl)nicotinamide] |  |  |  |  |  | completely abolishes the adjuvant effect |  |
| CN(C[C@H](O)[C@@H](O)[C@H](O)[C@H](O)CO)C(=O)c1ccc(CN(Cc2ccccc2)Cc2ccccn2)nc1 [Example 187, 6-((benzyl(pyridin-2-ylmethyl)amino)methyl)-N-methyl-N-((2S,3R,4R,5R)-2,3,4,5,6-pentahydroxyhexyl)nicotinamide] |  |  |  |  |  | completely abolishes the adjuvant effect |  |
| COC(=O)[C@@H](C)NC(=O)[C@@H](C)NC(=O)Cn1cc(CN(Cc2ccccn2)Cc2ccccn2)nn1 [Example 194, Methyl (2-(4-((bis(pyridin-2-ylmethyl)amino)methyl)1H-1,2,3-triazol-1-yl)acetyl)-D-alanyl-D-alaninate, reference compound] |  |  | >64 | 32 | 32 |  | RF - no of colonies (K. pneumoniae K66-45; MEM 1 mg/L): tntc (tntc = too numerous to count, plates containing either confluent growth or >1000 colonies); RF - no of colonies (K. pneumoniae K66-45; MEM 2 mg/L): tntc (tntc = too numerous to count, plates containing either confluent growth or >1000 colonies); RF - no of colonies (K. pneumoniae K66-45; MEM 4 mg/L): tntc (tntc = too numerous to count, plates containing either confluent growth or >1000 colonies); RF - no of colonies (K. pneumoniae K66-45; MEM 8 mg/L): tntc (tntc = too numerous to count, plates containing either confluent growth or >1000 colonies) |
